From patent US6833372B2, “Non-peptide GnRH agents, Pharmaceutical compositions, and methods for their use” (Pfizer, Inc., priority 2002, dated 2004)

Key:
rat GnRH receptor = molecular target: T1, rat GnRH receptor (Rattus norvegicus, UniProt P30969); assay: Radioligand binding: inhibition of 125I-GnRH-A binding to rat GnRH receptor (rat pituitary membranes); settings: read-out: Ki (nM), Inhibition Binding of 125I-GnRH-A to GnRH Receptors
T1 construct: or rat pituitaries (Pel Freez Biologicals, Rogers, Ark.) were homogenized; tissue Pel Freez Biologicals; host or cells: rat pituitaries (membrane preparation)
T1 sequence (P30969 1-327): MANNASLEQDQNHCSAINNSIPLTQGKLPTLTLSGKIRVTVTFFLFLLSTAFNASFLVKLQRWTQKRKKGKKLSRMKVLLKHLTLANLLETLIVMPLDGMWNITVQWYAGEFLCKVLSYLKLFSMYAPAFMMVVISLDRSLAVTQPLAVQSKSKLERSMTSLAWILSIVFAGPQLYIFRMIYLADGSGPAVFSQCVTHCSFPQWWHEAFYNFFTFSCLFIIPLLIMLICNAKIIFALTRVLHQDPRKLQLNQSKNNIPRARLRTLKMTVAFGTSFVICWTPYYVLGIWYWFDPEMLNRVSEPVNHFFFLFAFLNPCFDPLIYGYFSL
Description: (§1) HEK 293 cells containing mouse or human receptors, or rat pituitaries (Pel Freez Biologicals, Rogers, Ark.) were homogenized in buffer A containing: 50 mM Tris (pH 7.4), 0.32 M sucrose, 2 mM EGTA, 1 mM PMSF, 5 μg/ml aprotinen, 5 μg/ml Pepstatin A, and 1 μg/ml leupeptin. Homogenized cells were centrifuged at 4° C. at 20,000×g for 25 minutes, re-suspended in buffer A and re-centrifuged at 4° C. at 20,000×g for an additional 25 minutes. Total membrane protein was determined with a BCA kit (Pierce, Rockford, Ill.). Membranes were stored at −70° C. at a final membrane protein concentration of approximately 5 mg/ml.
(§2) The radioiodinated agonist analog of GnRH, [des-Gly^10,D-Ala^6]GnRH ethylamide (^125I-GnRH-A), was used as the radioligand. […] The reaction mixture was vortexed and incubated for 1 minute at room temperature. After one minute, the mixture was vortexed and allowed to incubate for an additional minute. 2 ml of 0.5 M acetic acid/1% BSA was added to the reaction tube and the mixture was added to a C18 Sep-Pak cartridge. The cartridge was washed with subsequent washes of 5 ml H2O and 5 ml 0.5 M acetic acid and then eluted with 5×1 ml of 60% CH3CN/40% 0.5 M acetic acid. The eluate was diluted with 3× volume of HPLC buffer A (0.1% TFA in H2O) and loaded onto a C18 column. The iodinated product was eluted over 20-25 min with a gradient of 25-100% CH3CN containing 0.1% TFA. The radioactive fractions (750 μl/fraction) were collected into clean polypropylene tubes containing 100 μl of 10% BSA. Fractions were assessed for biological activity by radioligand binding. Specific activity of the radioligand was approximately 2200 Ci/mmol.
(§3) Membranes were diluted to 0.01-0.5 mg/ml (depending upon the species of receptor) with assay buffer containing 50 mM HEPES (pH 7.4), 1 mM EDTA, 2.5 mM MgCl2, and 0.1% BSA. Membranes (diluted to utilize similar receptor numbers between assays) were incubated with approximately 0.04-0.06 nM ^125I-GnRH-A in the presence or absence of competing agents (0.1-10,000 nM) in a total volume of 200 μl in 96-well polypropylene plates for 1 hour at room temperature. Assays were stopped by rapid filtration onto 96-well GF/C filters soaked in 0.1% polyethylenimine (PEI) utilizing a Packard 96-well cell harvester. Filters were washed three times with ice-cold PBS (50 mM NaPO4, 0.9% NaCl, 2 mM MgCl2, and 0.02% NaN3, pH 7.4). 35 μl of scintillation cocktail was added to each filter well and filters were counted on a Packard Topcount. Control dose-response curves were generated to GnRH (0.1 nM-100 nM) in each competition binding experiment. Ki values were calculated from IC50 values according to Cheng et al., Biochemical Pharmacol. 22: 3099-3108, 1973. [formula]

human GnRH receptors = molecular target: T2, human GnRH receptors (Homo sapiens, UniProt P30968); assay: Radioligand binding: inhibition of 125I-GnRH-A binding to human GnRH receptor membranes; settings: HEK 293 cell membranes
T2 construct: expressed in transfected cells; host or cells: HEK 293 cells, stably transfected; membranes
T2 sequence (P30968 1-328): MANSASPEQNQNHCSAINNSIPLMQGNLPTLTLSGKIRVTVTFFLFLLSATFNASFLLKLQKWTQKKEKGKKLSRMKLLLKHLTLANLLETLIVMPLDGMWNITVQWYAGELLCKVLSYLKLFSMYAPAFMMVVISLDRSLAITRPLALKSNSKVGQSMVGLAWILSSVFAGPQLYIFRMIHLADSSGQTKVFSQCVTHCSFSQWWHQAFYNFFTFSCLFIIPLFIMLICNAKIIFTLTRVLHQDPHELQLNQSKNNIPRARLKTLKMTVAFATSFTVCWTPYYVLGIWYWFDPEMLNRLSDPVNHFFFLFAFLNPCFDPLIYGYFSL
Description: HEK 293 cells stably transfected with mouse or human GnRH receptors as described above were grown in Dulbecco's high-glucose, modified Eagle's medium (DMEM) supplemented with 0.2% G418, 10% fetal bovine serum (FBS) and 100 U/mL penicillin/streptomycin. GH3 cells stably transfected with the rat GnRH receptor (GGH3) were provided by Dr. William Chin (Harvard Medical School, Boston, Mass.). These cells have been extensively characterized previously (Kaiser et al., 1997). The cells were grown in low glucose DMEM containing: 100U/mL penicillin/streptomycin, 0.6% G418 and 10% heat-inactivated FBS.
as §1, §2, §3

Ki (rat GnRH receptor)	Ki (human GnRH receptors)	Structure (SMILES)
2.4 nM	3.5 nM	COc1nc(N2CCN(CCN)CC2)nc(OC)c1NC(=O)c1ccc(Cc2cc3c(cc2C)C(C)(C)OC3(C)C)o1 [Example D15, N-{2-[4-(2-Aminoethyl)piperazin-1-yl]-4,6-dimethoxypyrimidin-5-yl}-5-[(1,1,3,3,6-pentamethyl-1,3-dihydro-2-benzofuran-5-yl)methyl]-2-furamide]
1.9 nM	8.7 nM	COc1nc(NCCCn2ccnc2)nc(OC)c1NC(=O)c1ccc(Cc2cc3c(cc2C)C(C)(C)OC3(C)C)o1 [Example D19, N-(2-{[3-(1H-Imidazol-1-yl)propyl]amino}-4,6-dimethoxypyrimidin-5-yl}-5-[(1,1,3,3,6-pentamethyl-1,3-dihydro-2-benzofuran-5-yl)methyl]-2-furamide]
0.5 nM	1 nM	CNCCNc1nc(OC)c(NC(=O)c2ccc(Cc3cc4c(cc3C)C(C)(C)OC4(C)C)o2)c(OC)n1 [Example D20, N-(4,6-Dimethoxy-2-{[2-(methylamino)ethyl]amino}-pyrimidin-5-yl}-5-[(1,1,3,3,6-pentamethyl-1,3-dihydro-2-benzofuran-5-yl)methyl]-2-furamide]
15 nM	22 nM	COc1nc(N(C)Cc2cccnc2)nc(OC)c1NC(=O)c1ccc(Cc2cc3c(cc2C)C(C)(C)OC3(C)C)o1 [Example D38, N-{4,6-Dimethoxy-2-[methyl(pyridin-3-ylmethyl)amino]pyrimidin-5-yl}-5-[(1,1,3,3,6-pentamethyl-1,3-dihydro-2-benzofuran-5-yl)methyl]-2-furamide]
5.4 nM	19 nM	CCCCC(CC)COCCCNc1nc(OC)c(NC(=O)c2ccc(Cc3cc4c(cc3C)C(C)(C)OC4(C)C)o2)c(OC)n1 (centres unmarked) [Example D39, N-[2-({3-[(2-Ethylhexyl)oxy]propyl}amino)-4,6-dimethoxypyrimidin-5-yl]-5-[(1,1,3,3,6-pentamethyl-1,3-dihydro-2-benzofuran-5-yl)methyl]-2-furamide]
30 nM	27 nM	COc1nc(N2CCC3CNC(=O)C3C2)nc(OC)c1NC(=O)c1ccc(Cc2cc3c(cc2C)C(C)(C)OC3(C)C)o1 (centres unmarked) [Example D40, N-[4,6-Dimethoxy-2-(3-oxooctahydro-5H-pyrrolo[3,4-c]pyridin-5-yl)pyrimidin-5-yl]-5-[(1,1,3,3,6-pentamethyl-1,3-dihydro-2-benzofuran-5-yl)methyl]-2-furamide]
15 nM	12 nM	COc1nc(N(C)CCCCCCO)nc(OC)c1NC(=O)c1ccc(Cc2cc3c(cc2C)C(C)(C)OC3(C)C)o1 [Example D41, N-{2-[(6-Hydroxyhexyl)(methyl)amino]-4,6-dimethoxypyrimidin-5-yl}-5-[(1,1,3,3,6-pentamethyl-1,3-dihydro-2-benzofuran-5-yl)methyl]-2-furamide]
0.64 nM	1.6 nM	COc1nc(NCCSCCO)nc(OC)c1NC(=O)c1ccc(Cc2cc3c(cc2C)C(C)(C)OC3(C)C)o1 [Example D42, N-[2-({2-[(2-Hydroxyethyl)thio]ethyl}amino)-4,6-dimethoxypyrimidin-5-yl]-5-[(1,1,3,3,6-pentamethyl-1,3-dihydro-2-benzofuran-5-yl)methyl]-2-furamide]
3.4 nM	8.6 nM	COc1nc(NCc2ccc(N)cc2)nc(OC)c1NC(=O)c1ccc(Cc2cc3c(cc2C)C(C)(C)OC3(C)C)o1 [Example D44, N-{2-[(4-Aminobenzyl)amino]-4,6-dimethoxypyrimidin-5-yl}-5-[(1,1,3,3,6-pentamethyl-1,3-dihydro-2-benzofuran-5-yl)methyl]-2-furamide]
45 nM	36 nM	CCOCCN(CCOCC)c1nc(OC)c(NC(=O)c2ccc(Cc3cc4c(cc3C)C(C)(C)OC4(C)C)o2)c(OC)n1 [Example D49, N-{2-[Bis(2-ethoxyethyl)amino]-4,6-dimethoxypyrimidin-5-yl}-5-[(1,1,3,3,6-pentamethyl-1,3-dihydro-2-benzofuran-5-yl)methyl]-2-furamide]
19 nM	24 nM	COc1nc(N[C@@H](CO)CSCc2ccccc2)nc(OC)c1NC(=O)c1ccc(Cc2cc3c(cc2C)C(C)(C)OC3(C)C)o1 [Example D50, N-(2-{[(1S)-2-(Benzylthio)-1-(hydroxymethyl)ethyl]amino}-4,6-dimethoxypyrimidin-5-yl)-5-[(1,1,3,3,6-pentamethyl-1,3-dihydro-2-benzofuran-5-yl)methyl]-2-furamide]
2.6 nM	4.8 nM	COc1nc(N(CC(C)O)CC(C)O)nc(OC)c1NC(=O)c1ccc(Cc2cc3c(cc2C)C(C)(C)OC3(C)C)o1 (centres unmarked) [Example D53, N-{2-[Bis(2-hydroxypropyl)amino]-4,6-dimethoxypyrimidin-5-yl)-5-[(1,1,3,3,6-pentamethyl-1,3-dihydro-2-benzofuran-5-yl)methyl]-2-furamide]
14 nM	30 nM	COc1nc(NCC2(O)CCN(C)CC2)nc(OC)c1NC(=O)c1ccc(Cc2cc3c(cc2C)C(C)(C)OC3(C)C)o1 [Example D56, N-(2-{[(4-Hydroxy-1-methylpiperidin-4-yl)methyl]amino}-4,6-dimethoxypyrimidin-5-yl)-5-[(1,1,3,3,6-pentamethyl-1,3-dihydro-2-benzofuran-5-yl)methyl]-2-furamide Acetate]
4.4 nM	36 nM	COc1nc(NCC(c2ccc[nH]2)C(F)(F)F)nc(OC)c1NC(=O)c1ccc(Cc2cc3c(cc2C)C(C)(C)OC3(C)C)o1 (centres unmarked) [Example D57, N-(4,6-Dimethoxy-2-{[3,3,3-trifluoro-2-(1H-pyrrol-2-yl)propyl]amino}pyrimidin-5-yl)-5-[(1,1,3,3,6-pentamethyl-1,3-dihydro-2-benzofuran-5-yl)methyl]-2-furamide]
3.1 nM	4.8 nM	COc1nc(NCCN(C)CCCCCO)nc(OC)c1NC(=O)c1ccc(Cc2cc3c(cc2C)C(C)(C)OC3(C)C)o1 [Example D58, N-[2-({2-[(5-Hydroxypentyl)(methyl)amino]ethyl}amino)-4,6-dimethoxypyrimidin-5-yl]-5-[(1,1,3,3,6-pentamethyl-1,3-dihydro-2-benzofuran-5-yl)methyl]-2-furamide]
14 nM	42 nM	COc1nc(N2CCc3nc(N(C)C)ncc3C2)nc(OC)c1NC(=O)c1ccc(Cc2cc3c(cc2C)C(C)(C)OC3(C)C)o1 [Example D59, N-{2-[2-(Dimethylamino)-7,8-dihydropyrido[4,3-d]pyrimidin-6(5H)-yl]-4,6-dimethoxypyrimidin-5-yl}-5-[(1,1,3,3,6-pentamethyl-1,3-dihydro-2-benzofuran-5-yl)methyl]-2-furamide]
